Experimental data from patent US8613914B2, “Peptidomimetic sulfamide compounds and antiviral uses thereof” (Novartis AG, priority 2009, dated 2013).
pIC50: −log10 of the molar value.

Molecular target: HCV NS3-4A serine protease (full-length NS3-4A protein) (Hepatitis C virus genotype 1a (isolate 1) (HCV), UniProt P26664)
Test: HCV NS3-4A protease assay
Assay type: biochemical, HCV genotype 1a
Settings: strain HCV-1, fluorogenic peptide substrate, read-out: Protease assay Ex. 12 IC50
Protocol: The inhibitory activity of certain compounds of Table A against HCV NS3-4A serine protease is determined in a homogenous assay using the full-length NS3-4A protein (genotype 1a, strain HCV-1) and a commercially available internally-quenched fluorogenic peptide substrate as described by Taliani, M., et al. 1996 Anal. Biochem. 240:60-67, which is incorporated by reference in its entirety.

HCV NS3-4A serine protease (full-length NS3-4A protein), sequence (P26664 1027-1657): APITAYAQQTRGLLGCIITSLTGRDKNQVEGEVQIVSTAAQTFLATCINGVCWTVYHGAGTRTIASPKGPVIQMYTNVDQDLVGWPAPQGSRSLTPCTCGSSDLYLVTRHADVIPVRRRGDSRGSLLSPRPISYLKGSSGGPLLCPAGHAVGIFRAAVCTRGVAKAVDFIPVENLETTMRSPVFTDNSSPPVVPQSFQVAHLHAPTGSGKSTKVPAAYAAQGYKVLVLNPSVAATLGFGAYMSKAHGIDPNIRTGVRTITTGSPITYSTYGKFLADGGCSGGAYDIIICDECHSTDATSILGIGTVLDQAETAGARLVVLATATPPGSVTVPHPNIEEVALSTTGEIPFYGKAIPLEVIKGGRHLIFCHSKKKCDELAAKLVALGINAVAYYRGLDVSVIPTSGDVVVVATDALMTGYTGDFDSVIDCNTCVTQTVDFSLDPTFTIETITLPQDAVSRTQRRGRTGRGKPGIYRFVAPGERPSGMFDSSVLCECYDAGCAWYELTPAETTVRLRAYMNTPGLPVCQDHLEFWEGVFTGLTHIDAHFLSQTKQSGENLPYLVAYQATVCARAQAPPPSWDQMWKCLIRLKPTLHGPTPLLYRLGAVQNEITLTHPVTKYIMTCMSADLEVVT
HCV NS3-4A serine protease (full-length NS3-4A protein), sequence (P26664 1658-1711 partner): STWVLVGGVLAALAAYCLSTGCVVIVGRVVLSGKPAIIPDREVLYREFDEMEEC

| SMILES | pIC50 |
| --- | --- |
| C=C[C@@H]1C[C@]1(NC(=O)[C@@H]1C[C@@]2(CN1C(=O)[C@@H](NC(=O)[C@@H](NC(=O)C1CN(C(C)C)C1)C(C)(C)C)C(C)(C)C)C(C)(C)C21CCC1)C(=O)NS(=O)(=O)N1CCCC1 [Compound 23, (5R,8S)-7-[(2S)-2-{[(2S)-2-{[(1-isopropylazetidin-3-yl)carbonyl]amino}-3,3-dimethylbutanoyl]amino}-3,3-dimethylbutanoyl]-10,10-dimethyl-N-{(1R,2S)-1-[(pyrrolidin-1-ylsulfonyl)carbamoyl]-2-vinylcyclopropyl}-7-azadispiro[3.0.4.1]decane-8-carboxamide] | 6.40 |
| C=C[C@@H]1C[C@]1(NC(=O)[C@@H]1C[C@@]2(CN1C(=O)[C@@H](NC(=O)[C@@H](NC(=O)[C@@H]1CCCCN1CC)C1CCCCC1)C1CCOCC1)C(C)(C)C21CCC1)C(=O)NS(=O)(=O)N(CC)CC [Compound 85, (5R,8S)-7-[(2S)-2-{[(2S)-2-cyclohexyl-2-({[(2S)-1-ethylpiperidin-2-yl]carbonyl}amino)acetyl]amino}-2-(tetrahydro-2H-pyran-4-yl)acetyl]-N-[(1R,2S)-1-{[(diethylamino)sulfonyl]carbamoyl}-2-vinylcyclopropyl]-10,10-dimethyl-7-azadispiro[3.0.4.1]decane-8-carboxamide] | 8.35 |
| C=C[C@@H]1C[C@]1(NC(=O)[C@@H]1C[C@@]2(CN1C(=O)[C@@H](NC(=O)[C@@H](NC(=O)[C@@H]1CCCCN1C(C)C)C1(C)CCCCC1)C1(C)CCOCC1)C(C)(C)C21CCC1)C(=O)NS(=O)(=O)N(CC)CC [Compound 152, (5R,8S)-N-[(1R,2S)-1-{[(diethylamino)sulfonyl]carbamoyl}-2-vinylcyclopropyl]-7-[(2S)-2-{[(2S)-2-({[(2S)-1-isopropylpiperidin-2-yl]carbonyl}amino)-2-(1-methylcyclohexyl)acetyl]amino}-2-(4-methyltetrahydro-2H-pyran-4-yl)acetyl]-10,10-dimethyl-7-azadispiro[3.0.4.1]decane-8-carboxamide] | 8.96 |
| C=C[C@@H]1C[C@]1(NC(=O)[C@@H]1C[C@@]2(CN1C(=O)[C@@H](NC(=O)[C@@H](NC(=O)[C@@H]1CCCCN1C(C)C)C1CCCCC1)C(C)(C)C)C(C)(C)C21CCC1)C(=O)NS(=O)(=O)N(C)CCOC [Compound 56, (5R,8S)-7-[(2S)-2-{[(2S)-2-cyclohexyl-2-({[(2S)-1-isopropylpiperidin-2-yl]carbonyl}amino)acetyl]amino}-3,3-dimethylbutanoyl]-N-[(1R,2S)-1-({[(2-methoxyethyl)(methyl)amino]sulfonyl}carbamoyl)-2-vinylcyclopropyl]-10,10-dimethyl-7-azadispiro[3.0.4.1]decane-8-carboxamide] | 8.10 |
| C=C[C@@H]1C[C@]1(NC(=O)[C@@H]1C[C@@]2(CN1C(=O)[C@@H](NC(=O)[C@@H](NC(=O)[C@@H]1CCCCN1C(C)C)C1CCCCC1)C(C)(C)C)C(C)(C)C21CCC1)C(=O)NS(=O)(=O)N1CCC(F)(F)C1 [Compound 143, (5R,8S)-7-[(2S)-2-{[(2S)-2-cyclohexyl-2-({[(2S)-1-isopropylpiperidin-2-yl]carbonyl}amino)acetyl]amino}-3,3-dimethylbutanoyl]-N-[(1R,2S)-1-{[(3,3-difluoropyrrolidin-1-yl)sulfonyl]carbamoyl}-2-vinylcyclopropyl]-10,10-dimethyl-7-azadispiro[3.0.4.1]decane-8-carboxamide] | 8.52 |
| C=C[C@@H]1C[C@]1(NC(=O)C1C[C@@]2(CN1C(=O)[C@@H](NC(=O)[C@@H](NC(=O)[C@@H]1CCCCN1C(C)C)C(C)(C)C)C1CCOCC1)C(C)(C)C21CCC1)C(=O)NS(=O)(=O)N1CCCC1 (stereo partly drawn) [Compound 67, (5R)-7-[(2S)-2-[(N-{[(2S)-1-isopropylpiperidin-2-yl]carbonyl}-3-methyl-L-valyl)amino]-2-(tetrahydro-2H-pyran-4-yl)acetyl]-10,10-dimethyl-N-{(1R,2S)-1-[(pyrrolidin-1-ylsulfonyl)carbamoyl]-2-vinylcyclopropyl}-7-azadispiro[3.0.4.1]decane-8-carboxamide] | 7.70 |
| C=C[C@@H]1C[C@]1(NC(=O)[C@@H]1C[C@@]2(CN1C(=O)[C@@H](NC(=O)[C@@H](NC(=O)[C@@H]1Cc3[nH]cnc3CN1)C(C)(C)C)C(C)(C)C)C(C)(C)C21CCC1)C(=O)NS(=O)(=O)N1CCCC1 [Compound 29, (5R,8S)-7-[(2S)-2-{[(2S)-3,3-dimethyl-2-{[(6S)-4,5,6,7-tetrahydro-1H-imidazo[4,5-c]pyridin-6-ylcarbonyl]amino}butanoyl]amino}-3,3-dimethylbutanoyl]-10,10-dimethyl-N-{(1R,2S)-1-[(pyrrolidin-1-ylsulfonyl)carbamoyl]-2-vinylcyclopropyl}-7-azadispiro[3.0.4.1]decane-8-carboxamide] | 7.40 |
| C=C[C@@H]1C[C@]1(NC(=O)[C@@H]1C[C@@]2(CN1C(=O)[C@@H](NC(=O)[C@@H](NC(=O)[C@@H]1CCCCN1C(C)C)C(C)(C)C)C(C)(C)C)C(C)(C)C21CCC1)C(=O)NS(=O)(=O)N1CCCC1 [Compound 3, (5R,8S)-7-[(2S)-2-{[(2S)-2-({[(2S)-1-isopropylpiperidin-2-yl]carbonyl}amino)-3,3-dimethylbutanoyl]amino}-3,3-dimethylbutanoyl]-10,10-dimethyl-N-{(1R,2S)-1-[(pyrrolidin-1-ylsulfonyl)carbamoyl]-2-vinylcyclopropyl}-7-azadispiro[3.0.4.1]decane-8-carboxamide] | 8.22 |
| CC[C@@H]1C[C@]1(NC(=O)[C@@H]1C[C@@]2(CN1C(=O)[C@@H](NC(=O)[C@@H](NC(=O)[C@@H]1CCCCN1C(C)C)C1CCCCC1)C(C)(C)C)C(C)(C)C21CCC1)C(=O)NS(=O)(=O)N(C)C(C)C [Compound 141, (5R,8S)-7-[(2S)-2-{[(2S)-2-cyclohexyl-2-({[(2S)-1-isopropylpiperidin-2-yl]carbonyl}amino)acetyl]amino}-3,3-dimethylbutanoyl]-N-[(1R,2R)-2-ethyl-1-({[isopropyl(methyl)amino]sulfonyl}carbamoyl)cyclopropyl]-10,10-dimethyl-7-azadispiro[3.0.4.1]decane-8-carboxamide] | 8.10 |
| C=C[C@@H]1C[C@]1(NC(=O)[C@@H]1C[C@@]2(CN1C(=O)[C@@H](NC(=O)[C@@H](NC(=O)Cc1ccncc1)C1CCCCC1)C(C)(C)C)C(C)(C)C21CCC1)C(=O)NS(=O)(=O)N1CCCC1 [Compound 175, (5R,8S)-7-[(2S)-2-({cyclohexyl[(pyridin-4-ylacetyl)amino]acetyl}amino)-3,3-dimethylbutanoyl]-10,10-dimethyl-N-{(1R,2S)-1-[(pyrrolidin-1-ylsulfonyl)carbamoyl]-2-vinylcyclopropyl}-7-azadispiro[3.0.4.1]decane-8-carboxamide] | 8.00 |
| C=C[C@@H]1C[C@]1(NC(=O)[C@@H]1C[C@@]2(CN1C(=O)[C@@H](NC(=O)[C@@H](NC(=O)[C@@H]1CCCN1CC)c1ccccc1)C(C)(C)C)C(C)(C)C21CCC1)C(=O)NS(=O)(=O)N1CCCC1 [Compound 102, (5R,8S)-7-[(2S)-2-{[(2S)-2-({[(2S)-1-ethylpyrrolidin-2-yl]carbonyl}amino)-2-phenylacetyl]amino}-3,3-dimethylbutanoyl]-10,10-dimethyl-N-{(1R,2S)-1-[(pyrrolidin-1-ylsulfonyl)carbamoyl]-2-vinylcyclopropyl}-7-azadispiro[3.0.4.1]decane-8-carboxamide] | 8.10 |
| C=C[C@@H]1C[C@]1(NC(=O)[C@@H]1C[C@@]2(CN1C(=O)[C@@H](NC(=O)[C@@H](NC(=O)OC(C)(C)C)C(C)(C)C)C(C)(C)C)C(C)(C)C21CCC1)C(=O)NS(=O)(=O)N1CCCC1 [Compound 2, tert-butyl [(1S)-1-{[(1S)-1-{[(5R,8S)-10,10-dimethyl-8-({(1R,2S)-1-[(pyrrolidin-1-ylsulfonyl)carbamoyl]-2-vinylcyclopropyl}carbamoyl)-7-azadispiro[3.0.4.1]dec-7-yl]carbonyl}-2,2-dimethylpropyl]carbamoyl}-2,2-dimethylpropyl]carbamate] | 6.12 |
| C=C[C@@H]1C[C@]1(NC(=O)[C@@H]1C[C@@]2(CN1C(=O)[C@@H](NC(=O)[C@@H](NC(=O)c1ccccc1NC)C1CCCCC1)C(C)(C)C)C(C)(C)C21CCC1)C(=O)NS(=O)(=O)N1CCCC1 [Compound 182, (5R,8S)-7-{(2S)-2-[(cyclohexyl{[2-(methylamino)benzoyl]amino}acetyl)amino]-3,3-dimethylbutanoyl}-10,10-dimethyl-N-{(1R,2S)-1-[(pyrrolidin-1-ylsulfonyl)carbamoyl]-2-vinylcyclopropyl}-7-azadispiro[3.0.4.1]decane-8-carboxamide] | 7.15 |
| C=C[C@@H]1C[C@]1(NC(=O)[C@@H]1C[C@@]2(CN1C(=O)[C@@H](NC(=O)[C@@H](NC(=O)[C@@H]1CCCN1C1CCCC1)C1CCCCC1)C(C)(C)C)C(C)(C)C21CCC1)C(=O)NS(=O)(=O)N1CCCC1 [Compound 28, (5R,8S)-7-[(2S)-2-{[(2S)-2-cyclohexyl-2-({[(2S)-1-cyclopentylpyrrolidin-2-yl]carbonyl}amino)acetyl]amino}-3,3-dimethylbutanoyl]-10,10-dimethyl-N-{(1R,2S)-1-[(pyrrolidin-1-ylsulfonyl)carbamoyl]-2-vinylcyclopropyl}-7-azadispiro[3.0.4.1]decane-8-carboxamide] | 8.70 |
| C=C[C@@H]1C[C@]1(NC(=O)[C@@H]1C[C@@]2(CN1C(=O)[C@@H](NC(=O)[C@@H](NC(=O)[C@@H]1CCCCN1CC)C1CCCCC1)C(C)(C)C)C(C)(C)C21CCC1)C(=O)NS(=O)(=O)N(CC)CC [Compound 77, (5R,8S)-7-[(2S)-2-{[(2S)-2-cyclohexyl-2-({[(2S)-1-ethylpiperidin-2-yl]carbonyl}amino)acetyl]amino}-3,3-dimethylbutanoyl]-N-[(1R,2S)-1-{[(diethylamino)sulfonyl]carbamoyl}-2-vinylcyclopropyl]-10,10-dimethyl-7-azadispiro[3.0.4.1]decane-8-carboxamide] | 9.05 |
